Columns and labels:
[1] = tested on: layer II/III pyramidal neurons of the prefrontal cortex; test: In vivo dendritic spine analysis (Golgi stain, Neurolucida); set-up: species or system rat
FHC = test: Neuronal FHC protein levels by Western blot in cultured cortical neurons; assay type: cell-based, rat
Procedure: Rat cortical neurons were cultured in the presence of a glial feeder layer, using the bilaminar cell culture model. Due to the presence of glia this culture system largely preserves the in vivo mechanisms of neuronal growth and differentiation, but also allows for direct studies on neurons, which were separated from glia at the time of analysis. Selected experiments were performed using glia-free neuronal cultures, as noted, using previously described protocols (Sengupta et al., 2009, J. Neurosci. 29:2534-2544). Neurons were transfected at the time of plating by Nucleofection (Amaxa), or after 8 days in culture by lipofectamine (Invitrogen). All experiments were conducted at 21 DIV, unless otherwise noted. HDAC4 and control (scrambled) siRNA were obtained from Ambion (s170677 and 4390843), and FHC/scrambled shRNA from GenScript (custom order; shRNA vector also expressed GFP).
Protease and phosphatases inhibitors were added to both buffers.
Rat cortical neurons were cultured in serum-free media in the presence of a glial feeder layer (Shimizu, et al., 2011, J. Vis. Exp. 57). This culture system largely preserves the in vivo environment, due to the presence of glia; however, it still enables direct investigation of neurons that can be separated by the glia before experiments. Selected studies were also performed in neurons grown in the absence of glia for the entire culture period, as indicated (Sengupta, et al., 2009, J. Neurosci. 29(8):2534-44). All experiments were conducted between 8-13 days in vitro (DIV).
Total protein extracts were obtained using standard protocols. […] The following antibodies were used: anti-FHC (3998, Cell Signaling Technology, 1:1,000) and anti-β-actin (A2066, Sigma-Aldrich, 1:5,000).

IL-1β = test: ELISA of secreted IL-1β in neuronal/glial co-cultures; assay type: cell-based, rat; conditions: 200 pM for 24 hours; vs controls
Procedure: (§1) TNF-α and IL-1β secreted protein levels were determined from co-culture supernatants using commercially available rat TNF-α and IL-1β kits (Quantikine, R&D Systems). The assays were performed following the manufacturer's instructions. Absorbance was read at 450 nm using Wallac Victor2 1420 Multilabel Counter (PerkinElmer). The concentration of secreted TNF-α and IL-1β are expressed as picograms per milliliter (pg/mL); values were normalized to total protein content for each well.

TNF-α = test: ELISA of secreted TNF-α in neuronal/glial co-cultures; assay type: cell-based, rat; conditions: 200 pM for 24 hours; vs controls
Procedure: as §1

[2] = Attention set-shifting task after gp120 infusions; assay type: in vivo, rat; conditions: SD rats, vs BSA
Procedure: Rats (200-400 g, male Sprague-Dawley, Taconic Farms) were stereotaxically implanted, under isoflurane anesthesia, with stainless-steel cannulas placed 0.96 mm posterior and 3.18 mm lateral to bregma, 3.47 mm below the surface of the cranium at an angle of 22°. Four stainless-steel screws (#0-80) were placed around the cannula and acrylic dental cement was used to anchor the cannula. Animals were allowed seven days to recover before receiving a bilateral infusion of 1 μl of gp120IIIB (50 ng/μl) once daily for seven days via a 10 microliter Hamilton Syringe, needle diameter 0.48 mm; infusion rate=0.374 microliters/minute. Animals were food restricted and began behavioral testing 21 days following the final infusion.
Animals were tested in an attention set-shifting task (Birrell & Brown, 2000, J. Neurosci. 20(11); 4320-4324). On day 1 of testing, food restricted rats are habituated to the testing chamber for 20 minutes. The testing chamber (17″×22″×10″ H) is divided lengthwise by a plexiglass wall with a guillotine-style door creating a waiting area (one-third of the chamber), and a testing area (remaining two-thirds of the chamber). The far wall of the testing area (furthest from the waiting area) is bisected by a plexiglass divider that extended 9.25 inches; thus creating two distinct yet easily accessible sides of the testing area. The following day, rats are trained to dig in terra cotta pots to obtain a food reward (Frosted Cheerio). The food reward is progressively buried deeper in the pots, filled with corn cob bedding, until the rat reliably digs to retrieve the food reward. On day 3, rats undergo exemplar training, discriminating between sensory cues to determine which pot contains the food reward. […] If the rat begins digging in the incorrect pot, the pots are removed from the testing area, the rat is placed back into the waiting area, and the trial is recorded as incorrect. […]

gp120IIIB: X4-using HIV-1 envelope protein gp120, from Immunodiagnostics
average dendrite length ([1]; gp120-treated rats vs BSA): no changes in the average dendrite length
number of branching points ([1]; gp120-treated rats vs BSA): reduced number of branching points
spine density ([1]; gp120IIIB 50 ng/μl, 1 μl bilateral infusion once daily for seven days, vs BSA): reduction of spine density in layer II/III PFC neurons
neuronal expression of FHC (FHC; in the presence of glial feeder layer, 200 pM, up to 24 hr): able to increase neuronal expression of FHC
neuronal FHC protein levels (FHC; pure neuronal cultures, 200 pM for 3, 6, or 24 hours): only transiently increased FHC
secreted IL-1β levels in culture media (IL-1β): significantly higher
secreted TNF-α levels in culture media (TNF-α): significantly higher
attention set-shifting performance ([2]; testing 21 days after final infusion): impaired attention set-shifting performance
extra-dimensional shifts [2]: impaired in extra-dimensional shifts
reversal learning (Reversal 2, Reversal 3) [2]: impaired in the reversal learning component of the task
